Literature values as cited in US20220265591A1, “USE OF AN OSMOLYTE IN MANUFACTURE OF A MEDICAMENT FOR TREATMENT OF OCULAR DISORDERS” (SINGAPORE HEALTH SERVICES PTELTD, priority 2019, published 2022).

Test system: TGFBIp derived peptides
Conditions: 0.001-0.02% (0.03-0.6 mM), close to critical micellar concentration; cited from earlier work

## benzalkonium chloride
  effect on amyloid fibril formation: accelerated the amyloid fibril formation
